Some test systems named below: EKVX; ACHN; MCF7; NCI-H226; KM12; MOLT-4; UACC-62; CCRF-CEM; BT-549; NCI-H23; HCC 2998; NCI-H460; HOP-62; A549; NCI-H522; SW-620; DU-145; OVCAR-5; SF-295; SNB-19.
Holding throughout (experiment): NCI tumour cell line growth inhibition, 48 h

The structures appear in SMILES notation.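 Grown in 96-well plates, cells were treated for 48 hours with each compound at five concentrations. Insufficient inhibition: endpoint recorded as highest concentration tested. GI50 is the concentration that inhibits growth by half.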 The source made the active and inactive calls. No stated cut-off is given here; in the data, active = GI50 up to about 1.1 µM and inactive = higher. *1 amine or outer side, *2 acyl side, *3 side chain or, on linkers, in order; H or OH if unused. Where a SMILES comes first, the peptide text is derived from it. The star is where a group is joined. γGlu = O=C(O)[CH](CCC(=O)[*:2])N[*:1]; NHOH = ON* Where only a bound is given, the exact number is not on record here.

For `CCCCCCCCCCCC(=O)N(CCCCCCCCC)CC(O)C(O)C(OC1OC(CO)C(O)C(O)C1O)C(O)CO` (stereo not given), the GI50 with EKVX was 17.3 µM (inactive); in the experiment on ACHN, 17.7 µM (inactive); with MCF7, 35.8 µM (inactive); in the experiment on NCI-H226 it was 20.4 µM (inactive); in the experiment on KM12 it was 16.7 µM (inactive); in the experiment with MOLT-4, 23.2 µM (inactive). The GI50 in the experiment with UACC-62 is 17.7 µM (inactive); in the experiment on CCRF-CEM, 24 µM (inactive); with BT-549, 19.4 µM (inactive); with NCI-H23 it was 17.6 µM (inactive); with HCC 2998, 16.9 µM (inactive); with NCI-H460, 18.1 µM (inactive). The GI50 was 20.6 µM (inactive) in the experiment with HOP-62; 21 µM (inactive) in the experiment on A549; 22.1 µM (inactive) in the experiment on NCI-H522; 18.8 µM (inactive) in the experiment with SW-620; 18.5 µM (inactive) with DU-145; 22.7 µM (inactive) with OVCAR-5. Besides, the figures for the GI50 with SF-295 and with SNB-19 were 18.4 µM (inactive) and 20.6 µM (inactive), respectively.

In the case of `O=C(O)C(CO)NC(=O)C1C(C(=O)O)C(c2ccccc2[N+](=O)[O-])C=C(c2ccco2)N1c1ccncc1` (stereo not given), the GI50 with EKVX is 14.9 µM (inactive); with ACHN, 1.91 µM (inactive); with MCF7 it was 1.99 µM (inactive); in the experiment with NCI-H226 it was 14.5 µM (inactive); in the experiment on KM12 it was 1.73 µM (inactive); with MOLT-4, 2.44 µM (inactive). The GI50 is 7.83 µM (inactive) in the experiment on UACC-62; 2.19 µM (inactive) in the experiment on CCRF-CEM; 5.85 µM (inactive) in the experiment on BT-549; 7.16 µM (inactive) in the experiment on NCI-H23; 4.91 µM (inactive) in the experiment with HCC 2998; 6.31 µM (inactive) in the experiment with NCI-H460. Also, the GI50 in the experiment with HOP-62 is 12.2 µM (inactive); with A549 it was 3.26 µM (inactive); with NCI-H522, 4.61 µM (inactive); in the experiment with SW-620, 1.87 µM (inactive); with DU-145, 11.4 µM (inactive); in the experiment with OVCAR-5, 11.7 µM (inactive). The GI50 is 7.05 µM (inactive) with SF-295 and 12 µM (inactive) in the experiment with SNB-19.

Regarding `ClC1=C(Cl)C(Cl)(Cl)SS1`, the GI50 with EKVX is > 10 µM (inactive); in the experiment with ACHN it was 5.98 µM (inactive); in the experiment with MCF7, > 5.27 µM (inactive); in the experiment with NCI-H226 it was > 10 µM (inactive); in the experiment on KM12, > 10 µM (inactive); in the experiment on MOLT-4 it was 1.31 µM (inactive). In addition, the GI50 in the experiment with UACC-62 is > 10 µM (inactive); in the experiment on CCRF-CEM it was 0.879 µM (active); in the experiment on BT-549, > 8.73 µM (inactive); in the experiment with NCI-H23, > 10 µM (inactive); with HCC 2998 it was > 10 µM (inactive); in the experiment on NCI-H460, > 10 µM (inactive). Further, the GI50 was > 10 µM (inactive) with HOP-62; > 10 µM (inactive) with A549; 2.88 µM (inactive) with NCI-H522; 2.47 µM (inactive) in the experiment on SW-620; > 10 µM (inactive) with DU-145; > 10 µM (inactive) with OVCAR-5. For the same compound, the GI50 in the experiment on SF-295 and in the experiment on SNB-19 was > 10 µM (inactive) throughout.

Take `Cc1c2cnccc2c(C)c2c1[nH]c1ccc(O)cc12`: the GI50 in the experiment with EKVX was 2.88 µM (inactive); in the experiment with ACHN, 1.32 µM (inactive); in the experiment with MCF7, 0.914 µM (active); in the experiment on NCI-H226, 0.328 µM (active); in the experiment on KM12 it was 0.962 µM (active); with MOLT-4 it was 0.498 µM (active). Further, the GI50 with UACC-62 is 7.76 µM (inactive); in the experiment on CCRF-CEM, 0.74 µM (active); in the experiment with BT-549, 6.01 µM (inactive); with NCI-H23, 1.57 µM (inactive); in the experiment with HCC 2998, 1.57 µM (inactive); in the experiment with NCI-H460 it was 0.458 µM (active). The GI50 in the experiment with HOP-62 is 1.02 µM (active); in the experiment with A549, 1.52 µM (inactive); with NCI-H522, 2.82 µM (inactive); in the experiment on SW-620 it was 0.989 µM (active); with DU-145 it was 1.64 µM (inactive); in the experiment with OVCAR-5 it was 2.4 µM (inactive). The GI50 was 1.06 µM (active) in the experiment with SF-295 and 3.21 µM (inactive) with SNB-19.

With `O=C1/C(=C/c2ccc(F)cc2)CNC/C1=C\c1ccc(F)cc1`, the GI50 is 1.94 µM (inactive) in the experiment on EKVX; 1.71 µM (inactive) with ACHN; 0.813 µM (active) with MCF7; 2.82 µM (inactive) in the experiment on NCI-H226; 0.53 µM (active) with KM12; 2.11 µM (inactive) in the experiment with MOLT-4. The GI50 with UACC-62 was 2.32 µM (inactive); in the experiment with CCRF-CEM, 0.445 µM (active); in the experiment on BT-549, 1.01 µM (active); with NCI-H23 it was 1.5 µM (inactive); in the experiment on HCC 2998, 0.214 µM (active); in the experiment with NCI-H460, 0.675 µM (active). Moreover, the GI50 in the experiment with HOP-62 was 1.78 µM (inactive); in the experiment with A549, 2.92 µM (inactive); in the experiment on NCI-H522, 1.53 µM (inactive); with SW-620, 0.364 µM (active); in the experiment on DU-145, 1.75 µM (inactive); in the experiment with OVCAR-5, 2.88 µM (inactive). The GI50 with SF-295 was 2.09 µM (inactive); with SNB-19, 1.59 µM (inactive).

Take `NC(CCC(=O)NC(CCC(=O)NO)C(=O)NCC(=O)O)C(=O)O` (stereo not given) (γGlu-Glu(NHOH)-Gly-OH; configuration not given here): the GI50 in the experiment on EKVX, in the experiment on ACHN, in the experiment on MCF7, in the experiment on NCI-H226, with KM12 and with MOLT-4 was > 100 µM (inactive) each time. The GI50 in the experiment with UACC-62, with CCRF-CEM, in the experiment on BT-549, in the experiment with NCI-H23, in the experiment with HCC 2998 and in the experiment with NCI-H460 was > 100 µM (inactive) in each case. In addition, the GI50 with HOP-62, in the experiment with A549, in the experiment on NCI-H522, in the experiment with SW-620, in the experiment on DU-145 and in the experiment with OVCAR-5 was > 100 µM (inactive) throughout. Moreover, the GI50 in the experiment with SF-295 and with SNB-19 was > 100 µM (inactive) throughout.

For the origin of these results see ChEMBL document CHEMBL1201862, “PubChem BioAssay data set” (2004).
